# Publication PMC7559477, “Zinc Binding by Histatin 5 Promotes Fungicidal Membrane Disruption in C. albicans and C. glabrata” (Journal of Fungi, 2020)
# Where no end group is shown, it is not given here.
# Key:
# [1] = Zinc-binding competition assay with Zincon; details: competition with Zincon 1:1, 20 µM peptide, 10 mM NaPB pH 7.4, ZnSO4 titration, absorbance at 621 nm; triplicate, averaged
# Method: Binding competition assays were carried out utilizing the colorimetric copper and Zn^2+ binding dye Zincon. Peptides (20 µM) were mixed with Zincon at a 1:1 ratio and titrated with increasing equivalents of ZnSO4. Absorbance at 621 nm was measured at each addition of metal salt using a Lambda 25 UV/Vis spectrophotometer (Perkin Elmer, Waltham, MA, USA). Data were curve fit using a one site competition equation.
# Figure 2 The three Hsts are all soluble at a physiological ratio of Zn^2+ to peptide but differ in relative Zn^2+ affinity. (A) Percent solubility of 15 µM Hst 5 (red), Hst 5ΔMB (blue), and P113 (green) in 10 mM sodium phosphate buffer pH 7.4 with increasing ratio of Zn^2+ incubated at room temperature for 30 min. Peptide solubility was measured via NanoDrop A205 after removal of insoluble aggregates by centrifugation. (B) Binding competition assay with Zincon and peptides at 20 µM in 10 mM sodium phosphate buffer pH 7.4 to establish relative affinity of Hst 5 (red), Hst 5ΔMB (blue), and P113 (green) for Zn^2+ at increasing molar ratios. Absorbance of Zincon at 621 nm was measured as an inverse indicator of relative peptide affinity, as Zincon has a blue color when bound to zinc. Experiments were performed in triplicate and averaged.
# [2] = Peptide solubility assay (Zn2+-induced precipitation from NaPB); format: physicochemical; details: 15 µM peptide in 10 mM NaPB pH 7.4, 30 min at room temperature (20 °C), centrifuged 20000 x g 10 min, supernatant by NanoDrop A205, triplicate, averaged
# Method: Aggregation was quantified by measuring peptide precipitation from NaPB. Molar ratios of [0:0], [0:1], [1:2], [1:1], [2:1], [3:1], and [4:1] ZnSO4 to 15 µM peptide were used and samples were incubated for 30 min at room temperature (20 °C) before centrifugation. Samples were spun at 20000× g for 10 min at room temperature and the protein concentrations of the supernatants were subsequently measured using microvolume spectrophotometry (NanoDrop One, Thermofisher Scientific, Waltham, MA, USA) Data were cleaned using robust regression and outlier removal (ROUT) with Q set to 1%. Cleaned data were baseline corrected by subtracting peptide- and metal- free NaPB (0:0). […] Percent aggregation out of total peptide added was calculated. […] Statistical differences between the peptides at each metal salt titration were calculated using two-way ANOVA with Tukey’s multiple comparison test.
# Figure 2 The three Hsts are all soluble at a physiological ratio of Zn^2+ to peptide but differ in relative Zn^2+ affinity. […] Peptide solubility was measured via NanoDrop A205 after removal of insoluble aggregates by centrifugation. […] Absorbance of Zincon at 621 nm was measured as an inverse indicator of relative peptide affinity, as Zincon has a blue color when bound to zinc. […]
# [3] = system: Candida albicans strain SC5314; assay: Candidacidal assay, C. albicans; format: cell-based; details: 0.44 fmol/cell, 1 Zn2+ to 2 peptides, 1 h at 30 °C, 10 mM NaPB pH 7.4; words = versus peptide alone
# Method: (§1) Experiments were carried out with Candida albicans strain SC5314 [41] or Candida glabrata strain Cg931010 [42]. Liquid and solid pre-mixed yeast-peptone-dextrose media was used to grow yeast cells (YPD and YPD-Agar, respectively) (Fisher Scientific, Waltham, MA, USA). All media was prepared in deionized water with 50 µg/ mL supplemented uridine (Sigma Aldrich, St. Louis, MO, USA), and sterilized by autoclave. Metal salt solutions of ZnSO4·7H2O (Fisher Scientific, Waltham, MA, USA) were made in High-performance liquid chromatography (HPLC)-grade water (JT Baker, Phillipsburg, NJ, USA) and used within one day of preparation. […]
# (§2) Cells (C. albicans or C. glabrata) were cultured as previously described. […] Significance of differences in killing between Zn^2+ and Zn^2+-free samples were calculated using one-way ANOVA with Sidak’s multiple comparisons test.
# (A) Candidacidal assays of C. albicans SC5314 cells with 1 h incubation at 30 °C of Hst 5 (red), Hst 5ΔMB (blue), and P113 (green) at dosages of 0.44, 3.75, 7.5, 15, and 30 fmol/cell in 10 mM sodium phosphate buffer pH 7.4. […] Significance of differences in killing activity were calculated using one way ANOVA with Sidak’s multiple comparisons test. * indicates p ≤ 0.05, ** indicates p ≤ 0.01, **** indicates p ≤ 0.0001.
# [4] = system: Candida glabrata (Cg931010); assay: Extracellular ATP quantification (ATP efflux), C. glabrata; format: cell-based; details: 0.88 fmol/cell
# Method: Candida albicans (SC5314) or Candida glabrata (Cg931010) cells were prepared as for peptide uptake assays, with the exception that cells were added to samples at a dosage of 0.88 fmol peptide/cell in a 1:2 ratio of ZnSO4:peptide. After samples were mixed, each was immediately centrifuged for 2 min at 6000× g at room temperature, after which 10 µL supernatant was removed to new tubes and added to 84 µL boiling TE buffer (50 mM Tris pH 7.5, 2 mM EDTA pH 8) (1-min time point). Pelleted cells were resuspended with vortexing. After this, samples were incubated at 30 °C (220 rpm) and removed from incubation for a 10-min time point. Samples in TE buffer were boiled for two more minutes and stored on ice for quantitation. Then, 25µL of each sample were added to 10 µL Staybrite adenosine triphosphate (ATP) assay mix and 65 µL assay buffer (Biovision, Milpitas, CA, USA), and luminescence was immediately measured using a FlexStation 3 plate reader (Molecular Devices, San Jose, CA, USA). Experiments were carried out on at least three separate days. Data were interpolated using a standard curve to determine moles of ATP in each sample. Significant differences between Zn^2+ added and Zn^2+-free samples at each time point were determined using one-way ANOVA and Sidak’s multiple comparisons test. […]
# [5] = system: Candida albicans (SC5314); assay: Extracellular ATP quantification (ATP efflux), C. albicans; format: cell-based; details: 0.88 fmol/cell; for ATP efflux with added Zn2+: 1:2 ZnSO4:peptide, 10 mM NaPB pH 7.4, words = versus peptide alone; for total ATP efflux: peptide alone, 10 mM NaPB pH 7.4, luminescence
# Method: Candida albicans (SC5314) or Candida glabrata (Cg931010) cells were prepared as for peptide uptake assays, with the exception that cells were added to samples at a dosage of 0.88 fmol peptide/cell in a 1:2 ratio of ZnSO4:peptide. After samples were mixed, each was immediately centrifuged for 2 min at 6000× g at room temperature, after which 10 µL supernatant was removed to new tubes and added to 84 µL boiling TE buffer (50 mM Tris pH 7.5, 2 mM EDTA pH 8) (1-min time point). Pelleted cells were resuspended with vortexing. After this, samples were incubated at 30 °C (220 rpm) and removed from incubation for a 10-min time point. Samples in TE buffer were boiled for two more minutes and stored on ice for quantitation. Then, 25µL of each sample were added to 10 µL Staybrite adenosine triphosphate (ATP) assay mix and 65 µL assay buffer (Biovision, Milpitas, CA, USA), and luminescence was immediately measured using a FlexStation 3 plate reader (Molecular Devices, San Jose, CA, USA). Experiments were carried out on at least three separate days. Data were interpolated using a standard curve to determine moles of ATP in each sample. Significant differences between Zn^2+ added and Zn^2+-free samples at each time point were determined using one-way ANOVA and Sidak’s multiple comparisons test.
# Figure 5 Zinc induces almost immediate ATP efflux. C. albicans SC5314 bioluminescent ATP efflux assay. Cells were treated at 30 °C with 0.88 fmol/ cell. Hst 5 (red), Hst 5ΔMB (blue), or P113 (green) in 10 mM sodium phosphate buffer pH 7.4 with or without added Zn^2+ at a one to two peptides ratio (hatched). Cells were removed from samples via centrifugation and aliquots of supernatant were taken at 1 min and 10 min time points to measure extracellular ATP by luminescence. Experiments were repeated on at least three separate days and averaged. Significance of differences in ATP efflux calculated using one way ANOVA with Sidak’s multiple comparison test. ** indicates p ≤ 0.01, *** indicates p ≤ 0.001.
# [6] = system: C. albicans cells; assay: Peptide uptake (cell association) assay; format: cell-based, Candida albicans; details: 0.44 fmol/cell, 30 °C, up to 20 min, initial binding subtracted
# Method: as §1
# C. albicans cells were added to pre-incubated peptides (30 min, 20 °C) alone or at a 1 Zn^2+:2 peptide ratio, and additionally to Hst 5 at a 3 Zn^2+:2 peptide ratio, using a dose of 0.44 fmol peptide/cell. After cells were added, samples were vortexed briefly and immediately centrifuged for 2 min at 6000× g at 20 °C, after which 10 µL supernatant was removed to new tubes and stored at 4 °C for quantification. […] Protein concentration in supernatant samples was measured by NanoDrop. […] Significance of differences in uptake rate and binding between zinc added and zinc free samples were calculated using two-way ANOVA with Sidak’s multiple comparisons test. […]
# [7] = system: Candida glabrata strain Cg931010; format: cell-based; details: strain Cg931010, 18 h
# Method: as §1, §2
# Figure 6 Zinc greatly increases Hst 5 and P113 killing of C. glabrata, and induces almost immediate ATP efflux. […] Cells were removed from samples via centrifugation and aliquots of supernatant were taken at 1 and 10 min time points to measure extracellular ATP by luminescence. […] Significance of differences in killing and ATP efflux were calculated using one way ANOVA with Sidak’s multiple comparison test. * indicates p ≤ 0.05, **** indicates p ≤ 0.0001
Molecule,relative affinity for Zn2+ [1],precipitation of peptide ([2]; 1:1 Zn2+:peptide) [%],precipitation of peptide ([2]; 4:1 Zn2+:peptide) [%],killing with added Zn2+ [3],"ATP efflux total ([4]; 1 min, peptide alone, 10 mM NaPB pH 7.4, luminescence) [pmol]","ATP efflux with added Zn2+ ([4]; 10 min, 1:2 Zn2+:peptide, 10 mM NaPB pH 7.4, words = versus 1 min)",ATP efflux with added Zn2+ ([5]; 1 min),"total ATP efflux ([5]; 1 min, at least three days, averaged) [pmol]",ATP efflux with added Zn2+ ([5]; 10 min at 30 °C),total ATP efflux ([5]; 10 min at 30 °C) [pmol],"total uptake with added Zn2+ ([6]; 1 Zn2+:2 peptide, 10 mM NaPB pH 7.4, words = versus peptide alone) [pmol]","total uptake ([6]; peptide alone, 10 mM NaPB pH 7.4, supernatant by NanoDrop, at least three days, averaged) [pmol]",killing less than in C. albicans under the same conditions [7] [%]
QQQAKRHHGYKRKFQQQQQSHRGY [Hst 5ΔMB],lowest affinity,14,25,did not significantly alter,≤ 30,over 100 pmol,did not significantly increase,85,did not significantly increase,257,90,370,
"C[C@H](NC(=O)[C@H](Cc1c[nH]cn1)NC(=O)[C@H](CO)NC(=O)[C@@H](N)CC(=O)O)C(=O)N[C@@H](CCCCN)C(=O)N[C@@H](CCCNC(=N)N)C(=O)N[C@@H](Cc1c[nH]cn1)C(=O)N[C@@H](Cc1c[nH]cn1)C(=O)NCC(=O)N[C@@H](Cc1ccc(O)cc1)C(=O)N[C@@H](CCCCN)C(=O)N[C@@H](CCCNC(=N)N)C(=O)N[C@@H](CCCCN)C(=O)N[C@@H](Cc1ccccc1)C(=O)N[C@@H](Cc1c[nH]cn1)C(=O)N[C@@H](CCC(=O)O)C(=O)N[C@@H](CCCCN)C(=O)N[C@@H](Cc1c[nH]cn1)C(=O)N[C@@H](Cc1c[nH]cn1)C(=O)N[C@@H](CO)C(=O)N[C@@H](Cc1c[nH]cn1)C(=O)N[C@@H](CCCNC(=N)N)C(=O)NCC(=O)N[C@@H](Cc1ccc(O)cc1)C(=O)O [Hst 5, Histatin 5]",,,,,,,,,,,,,40
